Measurements taken from patent US9546151B2, “VMAT inhibitory compounds” (Oregon Health & Science University, priority 2014, dated 2017).
Where two headings read alike, the source gives them in different places.

How the values were obtained:
human 5HT1A receptor = molecular target: T1, human 5HT1A receptor (Homo sapiens, UniProt P08908); experiment: h5HT1A receptors: [3H]8-OH-DPAT binding; details: cells printed in μM under a head in nM; read-out: 5-HT1A [^3H] 8—OH DPAT Ki(nM) ± SEM
T1 construct: expressed in transfected cells; host or cells: HEK cells (G418 selection)
T1 sequence (P08908 1-422): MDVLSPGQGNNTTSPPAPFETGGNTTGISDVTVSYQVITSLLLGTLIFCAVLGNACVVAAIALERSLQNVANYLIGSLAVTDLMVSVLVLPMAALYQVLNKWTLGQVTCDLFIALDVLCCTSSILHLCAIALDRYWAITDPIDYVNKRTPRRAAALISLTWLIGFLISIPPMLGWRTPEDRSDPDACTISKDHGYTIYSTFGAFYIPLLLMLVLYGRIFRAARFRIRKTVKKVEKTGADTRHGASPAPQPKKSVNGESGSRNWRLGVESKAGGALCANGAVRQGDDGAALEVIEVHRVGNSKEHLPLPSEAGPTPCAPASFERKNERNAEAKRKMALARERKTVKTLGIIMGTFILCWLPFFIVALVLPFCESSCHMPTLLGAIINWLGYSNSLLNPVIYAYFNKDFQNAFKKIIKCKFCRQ
Protocol: Human embryonic kidney cells expressing the human 5HT1A receptor (HEK-h5HT1A) were used. The cells were grown to confluence in DMEM containing 10% FetalClone® (abbreviated as FC—source: HyClone), 0.05% penicillin-streptomycin (pen-strep), and 300 μg/mL of Geneticin (G418). The cells were scraped from 150 mm plates into phosphate-buffered saline and centrifuged at 270×g, 1200 rpm, for 10 minutes. The cell pellet was homogenized in 50 mM Tris-HCl (pH 7.7) with a Polytron, and centrifuged at 27,000×g. […] The final pellet was resuspended at 0.5 mg protein/mL in assay buffer (25 mM Tris-HCl, pH 7.4, containing 100 μM ascorbic acid and 10 μM pargyline). The assay was performed in duplicate in a 96-well plate. Serial dilutions of test compounds were made using the Biomek 2000 robotics system. […] Nonspecific binding was determined with 1.0 μM dihydroergotamine. The plates were incubated at room temperature for 60 minutes and then filtered through polyethylenimine-soaked (0.05%) “A” filtermats on a Tomtec cell harvester. The filters were washed with cold 50 mM Tris buffer (pH 7.7) for 6 sec, dried, spotted with scintillation cocktail, and counted for 2 minutes after a 4 hour delay on a Wallac Betaplate 1205 liquid scintillation counter.

human 5HT2A receptor = molecular target: T2, human 5HT2A receptor (Homo sapiens, UniProt P28223); experiment: h5HT2A receptors: [125I]DOI binding; details: cells printed in μM under a head in nM; read-out: 5-HT2A [^125I]DOI Ki (nM) ± SEM
T2 construct: expressed in transfected cells; host or cells: HEK cells
Protocol: Method: Human embryonic kidney cells expressing the human 5HT2A receptor (HEK-h5HT2A) or human 5HT2C receptor (HEK-h5HT2C) were used. The cells were grown until confluent on 15 cm plates. Media was removed, cells were washed with phosphate-buffered saline (PBS), scraped into 2 ml PBS and frozen at −20° C. until needed. Cell suspension was thawed, 10 ml assay buffer (50 mM Tris, pH 7.4 at 37° C., with 0.1% ascorbic acid and 5 mM CaCl2) was added per plate of cells, and polytronned at setting 6 for 5 sec. The homogenate was centrifuged at 15,500 rpm for 20 min. […] The final pellet was resuspended in 2 ml buffer/plate of cells.
The reaction was incubated for 1 hour at 37° C., and terminated by filtration through Wallac A filtermats presoaked in 0.05% polyethylenimine using a Tomtec 96-well harvester. Radioactivity remaining on filters was counted in a Wallac betaplate reader. IC50 values were calculated using GraphPad Prism. IC50 values were converted using the Cheng-Prusoff equation.

VMAT2 [1] = molecular target: T3, VMAT2 (Homo sapiens, UniProt Q05940); experiment: hVMAT2 [3H]DTBZ ([3H]DHTB) binding assay; set-up: expressed in transfected cells; host or cells: HEK (human embryonic kidney) cells
Protocol: (§1) Membrane preparation for binding, uptake and release assays using HEK-hVMAT2 cells: Human embryonic kidney cells expressing the human vesicular monoamine transporter 2 (HEK-hVMAT2) were used. HEK-hVMAT2 cells were grown until confluent. The media was removed from plates, solution A [sucrose (0.32 M) with protease inhibitors] was added to the plate, and cells were scraped from plate. Cells were homogenized with 12 strokes of a glass/glass homogenizer. The homogenate was centrifuged at 800×g for 10 min. The supernatant was removed and saved, and the pellet was resuspended, homogenized and centrifuged as above. The supernatants were combined and centrifuged at 10,000×g for 20 min. The pellet was resuspended in solution A (0.75 ml). The membranes were osmotically shocked by addition of 2.625 ml ice cold water and homogenized by 5 strokes of a glass/Teflon homogenizer. The osmolarity was reestablished with addition of Tris (338 μl, 0.25M, pH 7.4 at 4° C.), sodium potassium tartrate (338 μl, 1.0 M), and MgSO4 (4 μl, 0.9M). The homogenate was centrifuged at 20,000×g for 20 min.
Binding was terminated by filtration over Whatman GF/C filters using a Tomtec 96-well cell harvester. Filters were washed for six seconds with ice-cold saline. Scintillation fluid was added to each square and radioactivity remaining on the filters was determined using a Wallac μ- or beta-plate reader. Specific binding was defined as the difference in binding observed in the presence and absence of Ro4-1284 (10 μM, generously supplied by Hoffman LaRoche). Three or more independent competition experiments were conducted with duplicate determinations.

VMAT2 [2] = molecular target: T3, VMAT2; experiment: hVMAT2 5HT Uptake; assay type: biochemical; set-up: expressed in transfected cells; host or cells: HEK (human embryonic kidney) cells
Protocol: as §1

[3] = cells printed in μM under a head in nM, HEK-hVMAT2 membranes
[4] = [^3H]5HT uptake, HEK-hVMAT2 preparation, read-out: hVMAT2 5HT Uptake IC50 (nM) ± SEM

T3 sequence (Q05940 whole entry): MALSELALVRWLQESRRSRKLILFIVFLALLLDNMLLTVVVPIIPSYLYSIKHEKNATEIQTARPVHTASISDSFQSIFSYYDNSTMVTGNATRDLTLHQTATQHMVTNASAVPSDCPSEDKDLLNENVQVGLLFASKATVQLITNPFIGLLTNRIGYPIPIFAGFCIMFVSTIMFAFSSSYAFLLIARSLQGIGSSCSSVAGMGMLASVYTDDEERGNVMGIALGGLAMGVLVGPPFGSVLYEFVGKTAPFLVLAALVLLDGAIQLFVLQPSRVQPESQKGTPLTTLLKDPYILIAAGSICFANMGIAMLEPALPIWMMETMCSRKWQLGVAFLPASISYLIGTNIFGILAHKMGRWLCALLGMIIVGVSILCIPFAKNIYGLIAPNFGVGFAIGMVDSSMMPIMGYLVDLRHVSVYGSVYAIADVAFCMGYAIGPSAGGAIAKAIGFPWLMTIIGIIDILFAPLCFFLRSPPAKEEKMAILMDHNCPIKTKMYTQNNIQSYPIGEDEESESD
T2 sequence (P28223 whole entry): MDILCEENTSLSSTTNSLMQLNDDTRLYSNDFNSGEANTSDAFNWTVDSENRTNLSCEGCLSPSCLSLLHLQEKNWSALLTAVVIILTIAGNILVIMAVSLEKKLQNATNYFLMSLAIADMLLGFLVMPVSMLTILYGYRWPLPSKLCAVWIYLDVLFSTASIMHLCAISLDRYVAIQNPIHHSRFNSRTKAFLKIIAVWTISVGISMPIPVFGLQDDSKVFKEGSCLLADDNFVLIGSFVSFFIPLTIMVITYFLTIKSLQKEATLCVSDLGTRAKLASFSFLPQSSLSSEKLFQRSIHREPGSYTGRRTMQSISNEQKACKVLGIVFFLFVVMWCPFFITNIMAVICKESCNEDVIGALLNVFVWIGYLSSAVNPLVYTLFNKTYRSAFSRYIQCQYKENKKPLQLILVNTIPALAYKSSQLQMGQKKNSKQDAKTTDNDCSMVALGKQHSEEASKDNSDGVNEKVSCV

SMILES	Ki (human 5HT1A receptor)	Ki (human 5HT2A receptor)	melting point	Ki (VMAT2 [1]; [3])	IC50 (VMAT2 [2]; [4])	Ki (VMAT2 [1])	IC50 (VMAT2 [2])
CCOC(=O)[C@@H]1CN(CCn2c(=O)[nH]c3ccccc3c2=O)CC[C@@H]1c1ccc(F)cc1 (racemic) [Compound 5d, (±) syn-ethyl 1-(2-(2,4-dioxo-1,2-dihydroquinazolin-3(4H)-yl)ethyl)-4-(4-fluorophenyl)piperidine-3-carboxylate]	> 9 µM	> 2 µM					
CCOC(=O)[C@@H]1CN(CCn2c(=O)[nH]c3ccccc3c2=O)CC[C@@H]1c1cccc(F)c1 (racemic) [Compound 5e]			170.6 to 171.4 °C	> 10 µM	63 ± 10 nM		
CCOC(=O)[C@@H]1CN(CCn2c(=O)[nH]c3ccccc3c2=O)CC[C@@H]1c1ccc(Cl)cc1 (racemic) [Compound 5oo, (±) syn-ethyl 4-(4-chlorophenyl)-1-(2-(2,4-dioxo-1,2-dihydroquinazolin-3(4H)-yl)ethyl)piperidine-3-carboxylate]			194.8 to 196.1 °C	> 10 µM	49 ± 1 nM		
CCOC(=O)[C@@H]1CN(CCn2c(=O)[nH]c3ccccc3c2=O)CC[C@@H]1c1cccc(Cl)c1 (racemic) [Compound 5pp, (±) syn-ethyl 4-(3-chlorophenyl)-1-(2-(2,4-dioxo-1,2-dihydroquinazolin-3(4H)-yl)ethyl)piperidine-3-carboxylate]			161.8 to 162.9 °C	> 9 µM	34 ± 8 nM		
CCOC(=O)[C@@H]1CN(CCn2c(=O)[nH]c3ccccc3c2=O)CC[C@@H]1c1ccc(F)c(F)c1 (racemic) [Compound 5ss, (±)-syn-Ethyl 4-(3,4-difluorophenyl)-1-(2-(2,4-dioxo-1,2-dihydroquinazolin-3(4H)-yl)ethyl)piperidine-3-carboxylate]			196.6 to 198.4 °C	> 10 µM	100 ± 19 nM		
CCOC(=O)[C@@H]1CN(CCn2c(=O)[nH]c3ccccc3c2=O)CC[C@@H]1c1ccc([N+](=O)[O-])cc1 (racemic) [Compound 5tt, (±)-syn-Ethyl 4-(4-nitrophenyl)-1-(2-(2,4-dioxo-1,2-dihydroquinazolin-3(4H)-yl)ethyl)piperidine-3-carboxylate]			216 to 217.4 °C	> 10 µM	758 ± 165 nM		
CCOC(=O)[C@H]1CN(CCn2c(=O)[nH]c3ccccc3c2=O)CC[C@H]1c1ccccc1F (racemic) [Compound 5x, (±)-syn-Ethyl 1-(2-(2,4-dioxo-1,2-dihydroquinazolin-3(4H)-yl)ethyl)-4-(2-fluorophenyl)piperidine-3-carboxylate]			182.8 to 183.6 °C	> 10 µM	28 ± 12 nM		
CCOC(=O)[C@@H]1CN(CCn2c(=O)c3ccccc3n(Cc3ccccc3)c2=O)CC[C@@H]1c1ccc(F)cc1 (racemic) [Compound 6c, (±) syn-ethyl 1-(2-(1-benzyl-2,4-dioxo-1,2-dihydroquinazolin-3(4H)-yl)ethyl)-4-(4-fluorophenyl)piperidine-3-carboxylate]			134.9 to 136.4 °C	> 7 µM	270 ± 53 nM		
CCOC(=O)[C@@H]1CN(CCn2c(=O)c3ccccc3n(C)c2=O)CC[C@@H]1c1cccc(F)c1 (racemic) [Compound 6d, (±)-syn Ethyl 4-(3-fluorophenyl)-1-(2-(1-methyl-2,4-dioxo-1,2-dihydroquinazolin-3(4H)-yl)ethyl)piperidine-3-carboxylate]	> 10 µM		101.2 to 102.5 °C	> 9 µM	89 ± 12 nM		
CCOC(=O)[C@@H]1CN(CCn2c(=O)[nH]c3sccc3c2=O)CC[C@@H]1c1ccc(F)cc1 (racemic) [Compound 7a, (±) syn-ethyl 1-(2-(2,4-dioxo-1,2-dihydrothieno[2,3-d]pyrimidin-3(4H)-yl)ethyl)-4-(4-fluorophenyl)piperidine-3-carboxylate]			198.8 to 201.4 °C	> 10 µM	133 ± 20 nM		
CCOC(=O)[C@@H]1CN(CCn2c(=O)[nH]c3sccc3c2=O)CC[C@@H]1c1cccc(F)c1 (racemic) [Compound 7b, (±) syn-ethyl 1-(2-(2,4-dioxo-1,2-dihydrothieno[2,3-d]pyrimidin-3(4H)-yl)ethyl)-4-(3-fluorophenyl)piperidine-3-carboxylate]			153.3 to 155.1 °C	> 10 µM	200 ± 51 nM		
CCOC(=O)[C@@H]1CN(CCn2c(=O)[nH]c3sccc3c2=O)CC[C@@H]1c1ccc(C(F)(F)F)cc1 (racemic) [Compound 7c, (±) syn-ethyl 1-(2-(2,4-dioxo-1,2-dihydrothieno[2,3-d]pyrimidin-3(4H)-yl)ethyl)-4-(4-(trifluoromethyl)phenyl)piperidine-3-carboxylate]			190.3 to 191.5 °C	> 10 µM	1470 ± 65 nM		
CCOC(=O)[C@H]1CN(CCCn2c(=O)[nH]c3ccccc3c2=O)CC[C@H]1c1ccc(F)cc1 (racemic) [n=2, (±)-syn-Ethyl 1-(3-(2,4-dioxo-1,2-dihydroquinazolin-3(4H)-yl)propyl)-4-(4-fluorophenyl)piperidine-3-carboxylate]	> 10 µM		171.8 to 172.4 °C			> 10 µM	43 ± 4 nM
CCOC(=O)[C@H]1CN(CCCCn2c(=O)[nH]c3ccccc3c2=O)CC[C@H]1c1ccc(F)cc1 (racemic) [n=3, (±)-syn-Ethyl 1-(4-(2,4-dioxo-1,2-dihydroquinazolin-3(4H)-yl)butyl)-4-(4-fluorophenyl)piperidine-3-carboxylate]			148.5 to 149.7 °C			> 10 µM	133 ± 52 nM
CCOC(=O)[C@@H]1CN(CCn2c(=O)[nH]c3sccc3c2=O)CC[C@@H]1c1cccc(C(F)(F)F)c1 (relative stereo) [Compound 7d, syn-ethyl 1-(2-(2,4-dioxo-1,2-dihydrothieno[2,3-d]pyrimidin-3(4H)-yl)ethyl)-4-(3-(trifluoromethyl)phenyl)piperidine-3-carboxylate]			153.5 to 156.5 °C	> 10 µM	342 ± 103 nM		
O=c1[nH]c2ccccc2c(=O)n1CCN1CCC(c2ccc(F)cc2)CC1 [Compound 16, 3-(2-(4-(4-fluorophenyl)piperidin-1-yl)ethyl)quinazoline-2,4(1H,3H)-dione]			263 to 264 °C				
